We go through 30 compounds from patent US11021481B2, “Substituted isoindolin-1-ones and 2,3-dihydro-1h-pyrrolo[3,4-c]pyridin-1-ones as HPK1 antagonists” (Nimbus Saturn, Inc., priority 2019, dated 2021).

HPK1, sequence (Q92918 whole entry): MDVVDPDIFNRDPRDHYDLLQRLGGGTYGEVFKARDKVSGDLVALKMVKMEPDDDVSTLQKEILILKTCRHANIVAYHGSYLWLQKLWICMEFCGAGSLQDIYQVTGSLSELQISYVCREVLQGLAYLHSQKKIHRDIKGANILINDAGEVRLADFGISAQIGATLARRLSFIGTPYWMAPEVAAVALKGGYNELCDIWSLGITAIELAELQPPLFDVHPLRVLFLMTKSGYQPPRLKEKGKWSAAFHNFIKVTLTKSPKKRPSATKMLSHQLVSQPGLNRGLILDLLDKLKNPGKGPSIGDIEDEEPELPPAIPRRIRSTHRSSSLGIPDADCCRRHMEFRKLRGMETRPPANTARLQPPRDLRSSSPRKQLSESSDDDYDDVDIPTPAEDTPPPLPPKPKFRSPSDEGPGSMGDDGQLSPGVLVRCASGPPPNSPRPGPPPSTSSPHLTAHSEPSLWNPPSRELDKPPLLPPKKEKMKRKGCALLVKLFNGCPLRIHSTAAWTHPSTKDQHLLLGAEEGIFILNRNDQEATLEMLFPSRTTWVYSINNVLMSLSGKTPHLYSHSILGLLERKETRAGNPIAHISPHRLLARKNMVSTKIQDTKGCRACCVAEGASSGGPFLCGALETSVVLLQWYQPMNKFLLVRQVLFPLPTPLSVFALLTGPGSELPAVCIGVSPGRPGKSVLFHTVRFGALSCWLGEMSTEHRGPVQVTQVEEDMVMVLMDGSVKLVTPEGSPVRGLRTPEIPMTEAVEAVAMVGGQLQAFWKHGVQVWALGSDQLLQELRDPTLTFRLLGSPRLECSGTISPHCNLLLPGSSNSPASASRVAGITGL

The experiment addresses HPK1 (Homo sapiens (Human), UniProt Q92918). The experiment in a line: HPK1 biochemical enzyme assay (microfluidic mobility shift assay). Particulars: 1.5 nM HPK1, ATP 1 mM final, 30 min preincubation, 60 min at RT, Caliper EZ Reader; read-out: HPK1 1000UMATP caliper IC50. The gist of the method:
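Ten-point compound titrations (top 3 μM final) preincubated 30 min with HPK1 and substrate, then reaction started with 1 mM ATP and 1 μM substrate, 5 mM MgCl2. After 60 min at RT, reaction terminated and product measured by microfluidic mobility shift.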
For the compound `Cc1ccn2c(-c3ncc(Nc4ccc(N5CCC(O)CC5)cn4)c4c3CNC4=O)cnc2c1` [I-154, 7-[[5-(4-hydroxy-1-piperidyl)-2-pyridyl]amino]-4-(7-methylimidazo [1,2-a]pyridin-3-yl)-2,3-dihydropyrrolo [3,4-c]pyridin-1-one], the IC50 was below 100 nM.
The figure for `CN(C)Cc1nc(Nc2cnc(-c3ccnc4c3ccn4C)c3c2C(=O)NC3)ccc1[C@H]1CCOC1` [I-708, (R)-7-((6-((dimethylamino)methyl)-5-(tetrahydrofuran-3-yl)pyridin-2-yl)amino)-4-(1-methyl-1H-pyrrolo[2,3-b]pyridin-4-yl)-2,3-dihydro-1H-pyrrolo[3,4-c]pyridin-1-one] is below 100 nM; for `C[C@@H](c1ccc(Nc2ccc(-c3cnc4cc(F)ccn34)c3c2C(=O)NC3)nc1)N1CCC[C@H](O)C1` (stereo in doubt) [I-513, 4-(7-f1uoroimidazo [1,2-a]pyridin-3-yl)-7-((5-((S)-1-((S)-3-hydroxypiperidin-1-yl)ethyl)pyridin-2-yl)amino)isoin-dolin-1-one] it is below 100 nM; for `C[C@@H]1CC[C@@](C)(O)CN1c1ccc(Nc2ccc(-c3cnn4c3CCCC4)c3c2C(=O)NC3)nc1` [I-598, 7-((5-((2R,5R)-5-hydroxy-2,5-dimethyl-piperidin-1-yl)pyridin-2-yl)amino)-4-(4,5,6,7-tetrahydropyra-zolo[1,5-a]pyridin-3-yl)isoindolin-1-one] it is below 100 nM.
The figure for `O=C1NCc2c(-c3cnc4cc(F)ccn34)ccc(Nc3ccc(N4CC[C@H](O)[C@@H](F)C4)cn3)c21` [I-400, 7-((5-((3S, 4S)-3-fluoro-4-hydroxy-piperidin-1-yl)pyridin-2-yl)amino)-4-(7-fluoroimidazo [1,2-a]pyridin-3-yl)isoindolin-1-one] is below 100 nM; for `CN(Cc1nc(Nc2ccc(-c3cnc4cc(F)ccn34)c3c2C(=O)NC3)ccc1[C@H]1CCOC1)C1COC1` [I-743, (R)-4-(7-fluoroimidazo [1,2-a]pyridin-3-yl)-7-((6-((methyl(oxe-tan-3-yl)amino)meth-yl)-5-(tetrahydrofuran-3-yl)pyridin-2-yl)amino)isoin-dolin-1-one] it is below 100 nM.
The figure for `Cc1ccc2c(-c3ccc(Nc4ccc(N5CCO[C@H](C(C)(C)O)C5)cn4)c4c3CNC4=O)cnn2c1` [I-489, 7-[[5-[(2S)-2-(1-hydroxy-1-methylethyl)morpholin-4-yl]-2-pyripyl]amino]-4-(6-methylpyrazo-lo[1,5-a]pyridin-3-yl)isoindolin-1-one] is below 100 nM; for `CN(C)CCc1nc(Nc2cnc(-c3ccnc4c3ccn4C)c3c2C(=O)NC3)ccc1C1CCOC1` (stereo in doubt) [I-807, (R)-7-((6-(2-(dimethylami-no)ethyl)-5-(tetrahydrofuran-3-yl)pyridin-2-yl)amino)-3-(1-methyl-1H-pyrrolo[2,3-b)pyridin-4-yl)-2,3-dihydro-1H-pyrrolo[3,4-c]pyridin-1-one] it is below 100 nM; for `CN(C)C(C)(C)c1nc(Nc2ccc(-c3cnc4cc(F)ccn34)c3c2C(=O)NC3)ccc1[C@@H]1CCOC1` [I-833, (S)-7-((6-(2-(dimethylami-no)propan-2-yl)-5-(THF-3-yl)pyridin-2-yl)amino)-4-(7-fluoroimidazo [1,2-a]pyridin-3-yl)isoindolin-1-one] it is 100 to 1000 nM.
With `O=C1NCc2c(-c3cnc4ccccn34)ccc(Nc3ccc(N4CCCNCC4)cn3)c21` [I-104, 7-[[5-(l,4-diazepan-1-yl)-2-pyridyl]amino]-4-imidazo[1,2-a]pyridin-3-yl-isoindolin-1-one], the IC50 was below 100 nM.
The figure for `O=C1NCc2c(-c3cnc4cc(F)ccn34)ccc(Nc3ccc(N4CCOCC4)cn3)c21` [I-159, 4-(7-fluoroimidazo [1,2-a]pyridin-3-yl)-7-[(5-morpholino-2-pyridyl)amino] isoindolin-1-one] is below 100 nM.
Take `CN1CCN(c2ccc(Nc3cnc(-c4cccc5[nH]ccc45)c4c3C(=O)NC4)nc2)CC1` [I-252, 4-(1H-indol-4-yl)-7-((5-(4-methylpiperazin-1-yl)pyridin-2-yl)amino)-2,3-dihydro-1H-pyrrolo[3,4-c]pyridin-1-one]: the IC50 is 100 to 1000 nM.
Turning to `Cc1ccn2c(-c3ccc(Nc4ccc(N5CCC(O)(CN6CCOCC6)CC5)cn4)c4c3CNC4=O)cnc2c1F` [I-439, 4-(8-fluoro-7-methylimidazo [1,2-a]pyridin-3-yl)-7-((5-(4-hydroxy-4-(morpholinomethyl)piperidin-1-yl)pyridin-2-yl)amino)isoin-dolin-1-one], the IC50 was below 100 nM.
The figure for `CN1CCN(c2ccc(Nc3cnc(-c4c[nH]c5nc(C(F)(F)F)ccc45)c4c3C(=O)NC4)nc2)CC1` [I-253, 7-((5-(4-methylpiperazin-1-yl)pyridin-2-yl)amino]-4-(6-(trifluorometh-yl)-1H-pyrrolo[2,3-b]pyridin-3-yl)-2,3-dihydro-1H-pyrrolo[3,4-c]pyridin-1-one] is above 1000 nM.
The value for `O=C1NCc2c(-c3cnc4cnccn34)ccc(Nc3ccc(N4CC(O)C4)cn3)c21` [I-315, 7-((5-(3-hydroxyazeti-din-1-yl)pyridin-2-yl)amino)-4-(imidazo[1,2-a]pyrazin-3-yl)isoindolin-1-one] was below 100 nM; that for `COc1ccc2c(-c3ccc(Nc4ccc(N5CCN(C)CC5)cn4)c4c3CNC4=O)c[nH]c2c1` [I-28, 4-(6-methoxy-1H-indol-3-yl)-7-[[5-(4-methylpiperazin-1-yl)-2-pyridyl]amino] isoindolin-1-one] was below 100 nM.
The figure for `COc1cccn2c(-c3ncc(Nc4ccc(N5CCC[C@H](C(C)(C)O)C5)cn4)c4c3CNC4=O)cnc12` [I-461, 7-[[5-[(3S)-3-(1-hydroxy-1-methylethyl)-1-piperipyl]-2-pyridyl]amino]-4-(8-methoxyimi-dazo[1,2-a]pyridin-3-yl)-2,3-dihydro-pyrrolo[3,4-c]pyridin-1-one] is below 100 nM; for `CN(C)Cc1nc(Nc2ccc(-c3cnc4cc(F)ccn34)c3c2C(=O)NC3)ccc1N1CC[C@@H](F)[C@H](O)C1` [I-700, 7-((6-((dimethylamino)-methyl)-5-((3R,4R]-4-fluoro-3-hydroxypiperidin-1-yl)pyridin-2-yl)amino)-4-(7-fluoroimidazo [1,2-a]pyridin-3-yl)isoindolin-1-one] it is below 100 nM; for `CN(C)Cc1nc(Nc2cnc(-c3ccnc4c3ccn4C)c3c2C(=O)NC3)ccc1N1CCOCC1` [I-768, 7-((6-((dimethylamino)-methyl)-5-morpholinopy-ridin-2-yl)amino)-4-(1-methyl-1H-pyrrolo[2,3-b]pyridin-4-yl)-2,3-dihydro-1H-pyrrolo[3,4-c]pyridin-1-one] it is below 100 nM.
Turning to `COc1ccn2c(-c3ccc(Nc4ccc(N5CCC(O)CC5)cn4)c4c3CNC4=O)cnc2c1` [I-164, 7-[[5-(4-hydroxy-1-piperidyl)-2-pyridyl]amino]-4-(7-methoxylmidazo[1,2-a]pyridin-3-yl)isoindolin-1-one], the concentration for half-maximal inhibition (IC50) was below 100 nM.
The value for `O=C1NCc2c(-c3cnc4cc(CO)ccn34)ccc(Nc3ccc(N4CCOCC4)cn3)c21` [I-196, 4-[7-(hydroxymeth-yl)imidazo[1,2-a]pyridin-3-yl]-7-[(5-morpholino-2-pyridyl)amino] isoindolin-1-one] was below 100 nM.
`Cc1cc(Nc2cnc(-c3ccnc4c3ccn4C)c3c2C(=O)NC3)nc(N2CC[C@H]3CNC[C@H]32)c1` [I-641, 7-((6-((3aS.6aS)-hcxahydropyrr-olo[3,4-b]pyrrol-1(2H)-yl)-4-methylpyridin-2-yl)amino)-4-(1-methyl-1H-pyrrolo[2,3-b]pyridin-4-yl)-2,3-dihydro-1H-pyrrolo[3,4-c]pyridin-1-one]: the IC50 was below 100 nM.
For `Cn1ccc2c(-c3ncc(Nc4ccc5c(n4)CNCC5)c4c3CNC4=O)ccnc21` [I-413], the IC50 is above 1000 nM.
Regarding `CN(C)Cc1nc(Nc2ccc(-c3cnc4cc(F)ccn34)c3c2C(=O)NC3)ccc1O[C@@H]1CCOC1` [I-533], the IC50 is below 100 nM.
The value for “(S)-7-((6- ((dimethylamino)- methyl)-5- (tetrahydrofuran- 3-yl)pyridin- 2-yl)amino)-4- (1-methyl-1H- indol-4-yl)- 2,3-dihydro- 1H-pyrrolo[3,4- c]pyridin-1-one [I-540]” was below 100 nM.
Consider `CN(C)C(C)(C)[C@H]1CN(c2ccc(Nc3ccc(-c4cnc5cnccn45)c4c3C(=O)NC4)nc2)CCO1` [I-618, (R)-7-((5-(2-(2-(dimethylami-no)propan-2-yl)morpho-lino)pyridin-2-yl)amino)-4-(imidazo[1,2-a]pyrazin-3-yl)isoindolin-1-one], for which the IC50 was below 100 nM.
On to `C[C@H]1CN([C@@H](C)c2ccc(Nc3ccc(-c4cnc5cc(F)ccn45)c4c3C(=O)NC4)nc2)CCO1` [I-522, 4-(7-fluoroimidazo [1,2-a]pyridin-3-yl)-7-((5-((S)-1-((S)-2-methylmorpho-lino)ethyl)pyri-din-2-yl)amino) isoin-dolin-1-one], for which the half-maximal inhibitory concentration (IC50) is below 100 nM.
For the compound `CN(C)C(C)(C)C1CCCN(c2ccc(Nc3ccc(-c4cnc5cc(F)ccn45)c4c3C(=O)NC4)nc2)C1` (stereo in doubt) [I-606, (R)-7-((5-(3-(2-(dimethylami-no)propan-2-yl)piperidin-1-yl)pyridin-2-yl)amino)-4-(7-fluoroimidazo [1,2-a]pyridin-3-yl)isoindolin-1-one], the IC50 was below 100 nM.
The figure for `CN(C)C[C@@H]1CN(c2ccc(Nc3ccc(-c4cnc5cc(F)ccn45)c4c3C(=O)NC4)nc2)CCO1` [I-603, (R)-7-((5-(2-((dimethylamino)-methyl)mor-pholino)pyridin-2-yl)amino)-4-(7-fluoroimidazo [1,2-a]pyridin-3-yl)isoindolin-1-one] is below 100 nM; for `CN(C)Cc1nc(Nc2ccc(-c3ccnc4c3ccn4C)c3c2C(=O)NC3)ccc1[C@@H]1CCOC1` [I-545, (S)-7-((6-((dimethylamino)-methyl)-5-(tetrahydrofuran-3-yl)pyridin-2-yl)amino)-4-(1-methyl-1H-pyrrolo[2,3-b]pyridin-4-yl)isoindolin-1-one] it is below 100 nM.
